Test results published in ChEMBL document CHEMBL5441381, “ASAP - In vitro antiviral effect” (2024).
Where “and” joins values, the source holds several entries; their conditions need not be identical. Equal values may be shown once.

Experiments:
SARS-CoV-2 [1] = assay: (§1) Functional immunofluorescence assay to measure dose dependent changes in antiviral-drug inhibitory efficacy against hCoV-19/USA-WA1/2020 in HeLa-ACE2 cells which are seeded prior to drug treatment, then infected with hCoV-19/USA-WA1/2020. Cells are fixed with 10 % formaldehyde, washed with PBS, permeabilized with permeabilization buffer, then washed with wash buffer. The cells are incubated with nucleoprotein primary antibody IC7C7. Following primary staining, cells are washed with wash buffer and incubated in a solution of with Alexa fluor 488 and DAPI. Infected and uninfected cells are visualized and analyzed by Gen5 software. The assay has been performed by Icahn School of Medicine at Mount Sinai.; assay type: organism-based, Homo sapiens
SARS-CoV-2 [2] = assay: as §1, with “iPSC-Pneumocyte” for “HeLa-ACE2”, “to” for “to drug”; assay type: organism-based, Homo sapiens
[3] = tested on: Middle East respiratory syndrome-related coronavirus; assay: microbe, parasite or virus in culture; assay type: functional, organism-based, Chlorocebus sabaeus, VeroE6/TMPRSS2
[4] = Severe acute respiratory syndrome coronavirus 2, Pneumocyte
[5] = Severe acute respiratory syndrome coronavirus 2, HeLa-ACE2
[6] = Middle East respiratory syndrome-related coronavirus, VeroE6/TMPRSS2

Row | Structure (SMILES) | EC50 (SARS-CoV-2 [1]; hela-ace2) [µM] | EC50 (SARS-CoV-2 [2]; [4]) [µM] | EC50 (SARS-CoV-2 [1]; [5]) [µM] | EC50 [3, 6] [µM] | EC90 [3, 6] [µM] | also measured
1 | CC(C)[C@@H](Nc1ncnc2[nH]ccc12)c1ccc2c(c1)S(=O)(=O)CCC2 | > 50 | > 50 |  |  |  | EC90 (SARS-CoV-2 [1]; Severe acute respiratory syndrome coronavirus 2, HeLa-ACE2, Baseline response 0 %, Hill slope -1.838, Maximum measured 112.988 %, Maximum response 100 %, Minimum measured 76.031 %, R squared 0.586): > 50 µM; EC90 (SARS-CoV-2 [1]; Severe acute respiratory syndrome coronavirus 2, HeLa-ACE2, Baseline response 0 %, Hill slope -2.172, Maximum measured 117.108 %, Maximum response 100 %, Minimum measured 66.698 %, R squared 0.616): > 20 µM; EC90 (SARS-CoV-2 [2]; Severe acute respiratory syndrome coronavirus 2, Pneumocyte, Baseline response 0 %, Hill slope -1.893, Maximum measured 187.741 %, Maximum response 100 %, Minimum measured 35.01 %, R squared 0.158): > 50 µM; EC90 (SARS-CoV-2 [2]; Severe acute respiratory syndrome coronavirus 2, Pneumocyte, Maximum measured 138.005 %, Minimum measured 85.609 %): > 50 µM; EC50 (SARS-CoV-2 [2]; pneumocyte): 29.9 µM
2 | CC(C)[C@@H](Nc1ncnc2[nH]c(C(=O)N[C@H]3CCN(C)C3)cc12)c1ccc2c(c1)S(=O)(=O)CCC2 |  | > 50 | > 20 |  |  | EC90 (SARS-CoV-2 [1]; Severe acute respiratory syndrome coronavirus 2, HeLa-ACE2, Baseline response 0 %, Hill slope -0.107, Maximum measured 102.123 %, Maximum response 100 %, Minimum measured 84.181 %, R squared 0.016): > 20 µM; EC90 (SARS-CoV-2 [2]; Severe acute respiratory syndrome coronavirus 2, Pneumocyte, Baseline response 0 %, Hill slope -0.859, Maximum measured 114.501 %, Maximum response 100 %, Minimum measured 59.767 %, R squared 0.551): > 50 µM
3 | Cn1ncc(-c2cc3c(N[C@@H](c4ccc5c(n4)OCCO5)C(C)(C)C)ncnc3[nH]2)c1C#N | 1.6 |  | 1.49 | > 5 | > 5 | EC90 (SARS-CoV-2 [1]; Severe acute respiratory syndrome coronavirus 2, HeLa-ACE2, Baseline response 0 %, Hill slope -0.781, Maximum measured 101.751 %, Maximum response 100 %, Minimum measured 4.671 %, R squared 0.23): > 20 µM; EC90 (SARS-CoV-2 [1]; Severe acute respiratory syndrome coronavirus 2, HeLa-ACE2, Baseline response 0 %, Hill slope -0.984, Maximum measured 108.122 %, Maximum response 100 %, Minimum measured 8.006 %, R squared 0.973): > 10 µM
4 | Cc1nn(C)cc1-c1cc2c(N[C@H](c3ccc4c(c3)S(=O)(=O)CCC4)C(C)C)ncnc2[nH]1 |  |  | > 20 | > 5 | > 5 | EC90 (SARS-CoV-2 [1]; Severe acute respiratory syndrome coronavirus 2, HeLa-ACE2, Baseline response 0 %, Hill slope -2.191, Maximum measured 111.189 %, Maximum response 100 %, Minimum measured 56.402 %, R squared 0.73): > 20 µM; EC90 (SARS-CoV-2 [1]; Severe acute respiratory syndrome coronavirus 2, HeLa-ACE2, Baseline response 0 %, Hill slope -5.449, Maximum measured 120.747 %, Maximum response 100 %, Minimum measured 82.491 %, R squared 0.099): > 20 µM
5 | CC(C)[C@@H](Nc1ncnc2[nH]c(C(=O)N[C@@H]3CCN(C)C3)cc12)c1ccc2c(c1)S(=O)(=O)CCC2 |  | > 50 | > 20 | > 5 | > 5 | EC90 (SARS-CoV-2 [1]; Severe acute respiratory syndrome coronavirus 2, HeLa-ACE2, Baseline response 0 %, Hill slope 0.166, Maximum measured 108.327 %, Maximum response 100 %, Minimum measured 87.557 %, R squared 0.011): > 20 µM; EC90 (SARS-CoV-2 [1]; Severe acute respiratory syndrome coronavirus 2, HeLa-ACE2, Baseline response 0 %, Hill slope -0.788, Maximum measured 109.068 %, Maximum response 100 %, Minimum measured 93.8 %, R squared 0.114): > 20 µM; EC90 (SARS-CoV-2 [2]; Severe acute respiratory syndrome coronavirus 2, Pneumocyte, Baseline response 0 %, Hill slope -0.484, Maximum measured 101.646 %, Maximum response 100 %, Minimum measured 52.305 %, R squared 0.601): > 50 µM
6 | COc1ccc([C@H](Cc2nnn[nH]2)NC(=O)c2ncnc3[nH]ccc23)cc1 |  |  | > 20 | > 5 | > 5 | EC90 (SARS-CoV-2 [1]; Severe acute respiratory syndrome coronavirus 2, HeLa-ACE2, Baseline response 0 %, Hill slope -0.286, Maximum measured 116.588 %, Maximum response 100 %, Minimum measured 75.952 %, R squared 0.436): > 20 µM; EC90 (SARS-CoV-2 [1]; Severe acute respiratory syndrome coronavirus 2, HeLa-ACE2, Baseline response 0 %, Hill slope -1.346, Maximum measured 102.013 %, Maximum response 100 %, Minimum measured 88.847 %, R squared 0.139): > 20 µM
7 | CNCc1cc(-c2cc3c(N[C@@H](c4ccc5c(c4)S(=O)(=O)CCC5)C(C)C)ncnc3[nH]2)co1 | 11.6 | 3.34 | > 20 | > 5 | > 5 | EC90 (SARS-CoV-2 [1]; Severe acute respiratory syndrome coronavirus 2, HeLa-ACE2, Baseline response 0 %, Hill slope -1.471, Maximum measured 134.366 %, Maximum response 100 %, Minimum measured 28.123 %, R squared 0.287): > 20 µM; EC90 (SARS-CoV-2 [1]; Severe acute respiratory syndrome coronavirus 2, HeLa-ACE2, Baseline response 0 %, Hill slope -3.107, Maximum measured 113.346 %, Maximum response 100 %, Minimum measured 56.361 %, R squared 0.692): > 20 µM; EC90 (SARS-CoV-2 [2]; Severe acute respiratory syndrome coronavirus 2, Pneumocyte, Baseline response 0 %, Hill slope -0.579, Maximum measured 92.989 %, Maximum response 100 %, Minimum measured 2.106 %, R squared 0.758): > 50 µM
8 | C[C@H](C(=O)O)[C@@H](NC(=O)c1ncnc2[nH]ccc12)c1ccc(Br)cc1 |  |  | > 20 | > 5 | > 5 | EC90 (SARS-CoV-2 [1]; Severe acute respiratory syndrome coronavirus 2, HeLa-ACE2, Baseline response 0 %, Hill slope -0.083, Maximum measured 104.611 %, Maximum response 100 %, Minimum measured 71.809 %, R squared 0.037): > 20 µM; EC90 (SARS-CoV-2 [1]; Severe acute respiratory syndrome coronavirus 2, HeLa-ACE2, Maximum measured 2742.07 %, Minimum measured 91.919 %): > 20 µM
9 | CNC(=O)Cn1cc(-c2cc3c(N[C@@H](c4ccc5c(c4)S(=O)(=O)CCC5)C(C)C)ncnc3[nH]2)cn1 |  | > 50 | > 20 | > 5 | > 5 | EC90 (SARS-CoV-2 [1]; Severe acute respiratory syndrome coronavirus 2, HeLa-ACE2, Baseline response 0 %, Hill slope 1.327, Maximum measured 117.537 %, Maximum response 100 %, Minimum measured 90.244 %, R squared 0.066): > 20 µM; EC90 (SARS-CoV-2 [1]; Severe acute respiratory syndrome coronavirus 2, HeLa-ACE2, Maximum measured 116.513 %, Minimum measured 98.017 %): > 20 µM; EC90 (SARS-CoV-2 [2]; Severe acute respiratory syndrome coronavirus 2, Pneumocyte, Baseline response 0 %, Hill slope -7.964, Maximum measured 130.776 %, Maximum response 100 %, Minimum measured 73.915 %, R squared 0.151): > 50 µM
10 | CC(C)[C@@H](Nc1ncnc2[nH]c(-c3cnn(C)c3C#N)cc12)c1ccc2c(n1)OCCO2 |  | 12.7 |  | > 5 | > 5 | EC90 (SARS-CoV-2 [1]; Baseline response 0 %, EC90 CI (lower) 0.252 uM, EC90 CI (upper) 0.378 uM, Hill slope -1.375, Maximum measured 105.062 %, Maximum response 100 %, Minimum measured 1.471 %, R squared 0.975): 7.55 µM; EC90 (SARS-CoV-2 [1]; Baseline response 0 %, EC90 CI (lower) 1.033 uM, EC90 CI (upper) 2.755 uM, Hill slope -2.587, Maximum measured 119.294 %, Maximum response 100 %, Minimum measured 1.653 %, R squared 0.93): 9.22 µM; EC90 (SARS-CoV-2 [1]; Severe acute respiratory syndrome coronavirus 2, HeLa-ACE2, Baseline response 0 %, Hill slope -24.486, Maximum measured 143.7 %, Maximum response 100 %, Minimum measured 4.604 %, R squared 0.738): 6.44 µM; EC90 (SARS-CoV-2 [1]; Severe acute respiratory syndrome coronavirus 2, HeLa-ACE2, Baseline response 0 %, EC90 CI (lower) 1.926 uM, EC90 CI (upper) 3.068 uM, Hill slope -3.008, Maximum measured 101.777 %, Maximum response 100 %, Minimum measured 4.949 %, R squared 0.988): 10.5 µM; EC90 (SARS-CoV-2 [2]; Severe acute respiratory syndrome coronavirus 2, Pneumocyte, Baseline response 0 %, EC90 CI (lower) 0 uM, EC90 CI (upper) 0 uM, Hill slope -10.753, Maximum measured 116.418 %, Maximum response 100 %, Minimum measured 5.314 %, R squared 0.553): 15.6 µM
11 | CC(C)[C@H](Nc1ncnc2[nH]c(-c3cnn(C)c3C#N)cc12)c1ccc2c(n1)OCCO2 | 0.508 |  | 0.819 | > 5 | > 5 | EC90 (SARS-CoV-2 [1]; Baseline response 0 %, EC90 CI (lower) 0.11 uM, EC90 CI (upper) 0.158 uM, Hill slope -1.629, Maximum measured 105.242 %, Maximum response 100 %, Minimum measured 1.508 %, R squared 0.979): 1.96 µM; EC90 (SARS-CoV-2 [1]; Severe acute respiratory syndrome coronavirus 2, HeLa-ACE2, Baseline response 0 %, EC90 CI (lower) 0.09 uM, EC90 CI (upper) 0.442 uM, Hill slope -1.557, Maximum measured 125.33 %, Maximum response 100 %, Minimum measured 4.425 %, R squared 0.913): 3.36 µM
12 | CC(C)[C@H](Nc1ncnc2[nH]ccc12)c1ccc2c(c1)S(=O)(=O)CCC2 |  |  | > 20 |  |  | EC90 (SARS-CoV-2 [1]; Severe acute respiratory syndrome coronavirus 2, HeLa-ACE2, Maximum measured 129.029 %, Minimum measured 103.942 %): > 20 µM; EC90 (SARS-CoV-2 [1]; Severe acute respiratory syndrome coronavirus 2, HeLa-ACE2, Maximum measured 158.705 %, Minimum measured 84.767 %): > 20 µM; EC90 [3]: > 20 µM; EC50 ([3]; veroe6/tmprss2): 2.42 µM and > 20 µM and > 5 µM
13 | CC(C)[C@@H](Nc1ncnc2[nH]c(-c3cnn(C)c3)cc12)c1ccc2c(c1)S(=O)(=O)CCC2 |  | 7.59 | > 20 |  |  | EC90 (SARS-CoV-2 [1]; Severe acute respiratory syndrome coronavirus 2, HeLa-ACE2, Baseline response 0 %, Hill slope -10.363, Maximum measured 119.22 %, Maximum response 100 %, Minimum measured 72.714 %, R squared 0.37): > 20 µM; EC90 (SARS-CoV-2 [2]; Severe acute respiratory syndrome coronavirus 2, Pneumocyte, Baseline response 0 %, Hill slope -0.905, Maximum measured 103.795 %, Maximum response 100 %, Minimum measured 0.206 %, R squared 0.828): > 50 µM
